{
  "source": "patent US6140091A",
  "about": "“Anti-idiotype vaccines to elicit catalytic antibodies” (Boston Biomedical Research Institute, priority 1998, dated 2000)",
  "key": {"[1]": {"system": "MOPC 167 catalytic antibody (binding of anti-idiotype antibody 1F1)", "assay": "Competitive ELISA using the free transition state analog: binding of anti-Id 1F1 to MOPC 167", "set-up": "species or system mouse", "settings": "10 mM TS analog present", "procedure": "(§1) The first competitive ELISA uses the MOPC 167 catalytic antibody adsorbed onto microtitre plate wells. This assay measures the blocking effect of the p-nitrophenylphosphorylcholine transition state analog on the binding of anti-idiotype antibodies to MOPC 167 (FIG. 2, A versus B).\n(§2) A true combining site-reactive anti-idiotype antibody will be prevented from interacting with MOPC 167 if this assay is performed in the presence of an excess of the transition state analog because that analog will preoccupy the catalytic combining site (FIG. 2, B). Since the anti-idiotype is blocked from attaching to MOPC 167 and will subsequently wash away, a reduced signal is obtained after the peroxidase-labeled, γ-specific anti-mouse IgG reagent and its substrate are added (compare FIG. 2, A, unblocked control and B, transition state analog blockade).\n(§3) Binding of 4G4 and 1F1 to MOPC 167 was inhibited by 67% and 70% respectively when 10 mM p-nitrophenylphosphorylcholine TS analog was present."}, "[2]": {"target": "mouse myeloma catalytic antibody MOPC 167 (IgA)", "settings": "from Pollack et al., Science 234: 1570-1573 (1986); cited from earlier work"}, "[3]": {"system": "MOPC 167 catalytic antibody (binding of anti-idiotype antibody 4G4)", "assay": "Competitive ELISA using the free transition state analog: binding of anti-Id 4G4 to MOPC 167", "set-up": "species or system mouse", "settings": "10 mM TS analog present", "procedure": "as §1, §2, §3"}, "[4]": {"system": "mouse myeloma catalytic antibody MOPC 167 (IgA)", "assay": "MOPC 167 catalyzed acetylthiocholine hydrolysis (esterase activity, Ellman's reagent)", "type": "biochemical", "settings": "acetylthiocholine as substrate; analog concentration not given", "description": "It was recognized that the phosphocholine moiety might serve as a transition state analog for ester hydrolysis according to the scheme shown in FIG. 5. MOPC 167 was therefore tested for esterase activity using acetylthiocholine as a substrate and Ellman's reagent (E-ss-E) for the detection of thiol production (Izadyar et al., Proceedings of the National Academy of Sciences of the United States of America 90: 8876-80 (1993)).\nAnalysis of the Lineweaver-Burk plot for MOPC 167 catalyzed acetylthiocholine hydrolysis (FIG. 7) gave a Michaelis constant, km =627 μM and catalytic constant, kcat =0.25 min^-1 which were close to the values measured for carbonate ester hydrolysis (Pollack et al., Science 234: 1570-1573 (1986)). However, since spontaneous hydrolysis of this substrate is low, kuncat =4×10^-5 min^-1, the kcat /kuncat =6,000 is about 10-fold greater than that recorded for MOPC 167 catalysis of the carbonate ester reaction. That rate enhancement should be increased by using idiotypic mimicry."}},
  "data": [
    {"smiles": "C[N+](C)(C)CCOP(=O)([O-])Oc1ccc([N+](=O)[O-])cc1", "note": "[p-nitrophenylphosphorylcholine]", "values": [
      {"measurement": "inhibition of binding of 1F1 to MOPC 167", "setting": "[1]", "value": 70, "unit": "%"},
      {"measurement": "affinity Ka", "setting": "[2]", "value": "~ 10^6 M^-1"},
      {"measurement": "inhibition of binding of 4G4 to MOPC 167", "setting": "[3]", "value": 67, "unit": "%"},
      {"measurement": "blockage of esterase activity by the non-cleavable transition state analog", "setting": "[4]", "value": "almost completely blocked"}
    ]}
  ]
}
